Test [1] has as its target T1, Protein deacetylase HDAC6 (Homo sapiens, UniProt Q9UBN7).
T1 sequence (Q9UBN7 whole entry): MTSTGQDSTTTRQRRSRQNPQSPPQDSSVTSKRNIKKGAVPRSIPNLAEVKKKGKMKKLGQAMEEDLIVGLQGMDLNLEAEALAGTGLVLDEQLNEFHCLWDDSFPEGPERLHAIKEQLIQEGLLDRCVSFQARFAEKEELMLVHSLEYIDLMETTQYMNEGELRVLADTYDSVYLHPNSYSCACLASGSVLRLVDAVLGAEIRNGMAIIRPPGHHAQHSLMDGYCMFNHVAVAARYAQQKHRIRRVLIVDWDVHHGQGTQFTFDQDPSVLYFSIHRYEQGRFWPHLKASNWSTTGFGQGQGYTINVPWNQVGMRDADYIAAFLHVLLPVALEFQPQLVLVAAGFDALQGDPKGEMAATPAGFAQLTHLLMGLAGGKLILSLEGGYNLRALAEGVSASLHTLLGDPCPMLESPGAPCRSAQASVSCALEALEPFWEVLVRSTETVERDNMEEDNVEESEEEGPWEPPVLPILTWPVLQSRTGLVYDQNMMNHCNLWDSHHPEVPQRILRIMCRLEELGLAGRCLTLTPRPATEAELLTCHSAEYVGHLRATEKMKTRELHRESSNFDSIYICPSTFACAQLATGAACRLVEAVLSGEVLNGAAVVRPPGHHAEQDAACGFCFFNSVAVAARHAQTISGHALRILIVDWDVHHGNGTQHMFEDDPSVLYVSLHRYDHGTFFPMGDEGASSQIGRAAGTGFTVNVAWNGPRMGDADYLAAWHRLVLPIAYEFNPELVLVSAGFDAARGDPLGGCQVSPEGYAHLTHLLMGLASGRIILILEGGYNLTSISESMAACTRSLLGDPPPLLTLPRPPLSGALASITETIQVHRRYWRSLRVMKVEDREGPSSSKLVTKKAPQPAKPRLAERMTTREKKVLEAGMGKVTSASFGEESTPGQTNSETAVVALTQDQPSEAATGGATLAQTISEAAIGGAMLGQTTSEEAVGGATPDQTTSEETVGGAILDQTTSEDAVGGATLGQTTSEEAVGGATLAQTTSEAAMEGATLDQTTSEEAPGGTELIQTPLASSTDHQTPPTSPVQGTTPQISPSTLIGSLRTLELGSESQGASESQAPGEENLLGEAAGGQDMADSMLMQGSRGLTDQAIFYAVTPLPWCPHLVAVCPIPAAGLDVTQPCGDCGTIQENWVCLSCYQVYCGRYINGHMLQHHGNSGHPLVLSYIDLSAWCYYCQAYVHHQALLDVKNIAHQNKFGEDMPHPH
Nature of the test: Inhibition of human recombinant HDAC6 using Boc-Lys(acetyl)-AMC substrate incubated for 2 hrs by fluorescence based assay.

A further test addresses Histone deacetylase 1 (Homo sapiens, UniProt Q13547). The test can be described thus: Inhibition of human recombinant HDAC1 using Boc-Lys(acetyl)-AMC substrate incubated for 2 hrs by fluorescence based assay.
Another test has as its target Histone deacetylase 3 (Homo sapiens, UniProt O15379). The test can be described thus: Inhibition of human recombinant HDAC3 using Boc-Lys(acetyl)-AMC substrate incubated for 2 hrs by fluorescence based assay.
A further test has as its target Histone deacetylase 2 (Homo sapiens, UniProt Q92769). The test can be described thus: Inhibition of human recombinant HDAC2 using Boc-Lys(acetyl)-AMC substrate incubated for 2 hrs by fluorescence based assay.
The test system of the next test is MV4-11. The test can be described thus: cells. The note with it: Homo sapiens, MV4-11, 48 h.

Chain of Histone deacetylase 1 (Q13547 whole entry): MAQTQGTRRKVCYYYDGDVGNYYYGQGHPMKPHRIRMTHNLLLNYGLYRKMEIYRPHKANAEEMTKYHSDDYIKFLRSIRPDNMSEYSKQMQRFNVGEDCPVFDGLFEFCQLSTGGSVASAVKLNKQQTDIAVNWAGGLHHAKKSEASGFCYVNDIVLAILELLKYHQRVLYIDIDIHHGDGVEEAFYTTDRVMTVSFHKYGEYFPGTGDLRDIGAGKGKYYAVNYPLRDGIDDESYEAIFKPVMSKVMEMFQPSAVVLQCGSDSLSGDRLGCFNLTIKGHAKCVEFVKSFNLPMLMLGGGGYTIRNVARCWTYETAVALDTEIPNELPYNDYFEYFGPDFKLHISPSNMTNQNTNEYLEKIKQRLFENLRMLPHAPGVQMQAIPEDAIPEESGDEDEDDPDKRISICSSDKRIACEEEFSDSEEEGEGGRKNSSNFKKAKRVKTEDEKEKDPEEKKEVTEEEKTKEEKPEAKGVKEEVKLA
Chain of Histone deacetylase 3 (O15379 whole entry): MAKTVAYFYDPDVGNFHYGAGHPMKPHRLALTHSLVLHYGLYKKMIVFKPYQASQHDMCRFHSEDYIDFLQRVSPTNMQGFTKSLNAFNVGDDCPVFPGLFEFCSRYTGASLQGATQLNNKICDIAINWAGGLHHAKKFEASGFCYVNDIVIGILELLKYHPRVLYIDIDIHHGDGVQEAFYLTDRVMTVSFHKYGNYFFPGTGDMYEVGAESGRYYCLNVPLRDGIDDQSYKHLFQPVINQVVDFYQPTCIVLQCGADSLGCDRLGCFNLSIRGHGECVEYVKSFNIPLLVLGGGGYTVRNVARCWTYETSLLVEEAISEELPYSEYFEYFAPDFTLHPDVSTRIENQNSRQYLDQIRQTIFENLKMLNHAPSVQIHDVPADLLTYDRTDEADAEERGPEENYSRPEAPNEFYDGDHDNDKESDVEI
Chain of Histone deacetylase 2 (Q92769 whole entry): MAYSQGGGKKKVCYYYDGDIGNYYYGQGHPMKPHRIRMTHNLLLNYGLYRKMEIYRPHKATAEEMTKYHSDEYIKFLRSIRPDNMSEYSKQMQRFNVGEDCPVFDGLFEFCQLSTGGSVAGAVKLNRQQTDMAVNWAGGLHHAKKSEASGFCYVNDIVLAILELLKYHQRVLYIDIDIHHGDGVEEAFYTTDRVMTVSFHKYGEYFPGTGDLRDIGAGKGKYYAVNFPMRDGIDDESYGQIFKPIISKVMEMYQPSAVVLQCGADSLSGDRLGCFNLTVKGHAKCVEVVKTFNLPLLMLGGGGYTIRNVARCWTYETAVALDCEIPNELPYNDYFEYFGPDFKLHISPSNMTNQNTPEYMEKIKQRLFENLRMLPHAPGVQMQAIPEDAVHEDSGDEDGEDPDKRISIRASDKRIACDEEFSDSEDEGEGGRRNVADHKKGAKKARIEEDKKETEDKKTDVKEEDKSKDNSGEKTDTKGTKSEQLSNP
Description for MV4-11: Antiproliferative activity against human MV4-11 AML cells assessed as cell viability measured after 48 hrs by multiplate reader method

As usually defined, the IC50 is the point on the concentration scale where inhibition reaches its midpoint. For the compound `CCCNNC(=O)c1ccc(CNC(=O)c2ccc3cnccc3n2)cc1`, the IC50 in test [1] is more than 10000 nM; on Histone deacetylase 1, 16.2 nM; on Histone deacetylase 3, 2.03 nM; at Histone deacetylase 2, 41.4 nM; with MV4-11, 59.7 nM.

With `CCCNNC(=O)c1ccc(CNC(=O)c2cc3cc(Br)ccc3[nH]2)cc1`, the IC50 was more than 10000 nM in test [1]; 58.3 nM on Histone deacetylase 1; 1.31 nM at Histone deacetylase 3; 186 nM at Histone deacetylase 2; 66.5 nM in the test with MV4-11.

As to `C=CCOc1ccc2oc(C(=O)NCc3ccc(C(=O)NNCCC)cc3)cc2c1`, the IC50 is more than 10000 nM in test [1]; 11.7 nM on Histone deacetylase 1; 0.85 nM at Histone deacetylase 3; 35.8 nM at Histone deacetylase 2; 53.8 nM with MV4-11.

Consider `CCCNNC(=O)c1ccc(CNC(=O)c2cc3cc(Cl)ccc3o2)cc1`, for which the IC50 in test [1] is more than 10000 nM; at Histone deacetylase 1, 8.91 nM; on Histone deacetylase 3 it was 0.62 nM; on Histone deacetylase 2, 28.1 nM; in the test on MV4-11, 248 nM.

For the compound `CCCNNC(=O)c1ccc(CNC(=O)c2cnc3ccccc3c2)cc1`, the IC50 in test [1] is more than 10000 nM; on Histone deacetylase 1, 13.7 nM; at Histone deacetylase 3, 1.79 nM; at Histone deacetylase 2 it was 59.6 nM; in the test with MV4-11, 71 nM.

In the case of `CCCNNC(=O)c1ccc(CNC(=O)c2ccc3ccccc3c2)cc1`, the IC50 in test [1] is more than 10000 nM; on Histone deacetylase 1, 7.98 nM; at Histone deacetylase 3 it was 0.89 nM; at Histone deacetylase 2, 30.5 nM; with MV4-11 it was 43.6 nM.

Regarding `CCCNNC(=O)c1ccc(CNC(=O)c2cc3ccccc3s2)cc1`, the IC50 in test [1] was more than 10000 nM.

Take `CCCNNC(=O)c1ccc(CNC(=O)c2ccc3ccccc3n2)cc1`: the IC50 in test [1] is more than 10000 nM; on Histone deacetylase 1 it was 10.7 nM; at Histone deacetylase 3, 0.9 nM; on Histone deacetylase 2, 57.3 nM; with MV4-11 it was 57.8 nM.

For `CCCNNC(=O)c1ccc(CNC(=O)c2cc3cc(Cl)ccc3[nH]2)cc1`, the IC50 in test [1] was more than 10000 nM; on Histone deacetylase 1, 13.8 nM; at Histone deacetylase 3 it was 0.66 nM; at Histone deacetylase 2 it was 46.1 nM; with MV4-11, 37.7 nM.

For the compound `CCCNNC(=O)c1ccc(CNC(=O)c2cc3cc(Br)ccc3o2)cc1`, the IC50 in test [1] is more than 10000 nM; on Histone deacetylase 1 it was 7.85 nM; on Histone deacetylase 3 it was 0.62 nM; at Histone deacetylase 2 it was 23.7 nM; in the test with MV4-11, 159 nM.

`CCCNNC(=O)c1ccc(CNC(=O)c2cc3cc(O)ccc3o2)cc1`: the IC50 in test [1] was more than 10000 nM; at Histone deacetylase 1, 3.91 nM; at Histone deacetylase 3, 0.51 nM; on Histone deacetylase 2, 16.1 nM; with MV4-11 it was 40 nM.

As to `CCCNNC(=O)c1ccc(CNC(=O)c2cc3cc(OC)ccc3[nH]2)cc1`, the IC50 was more than 10000 nM in test [1]; 4.66 nM at Histone deacetylase 1; 0.58 nM at Histone deacetylase 3; 16.4 nM on Histone deacetylase 2; 37.5 nM in the test with MV4-11.

Regarding `CCCNNC(=O)c1ccc(CNC(=O)c2cc3cc(OC)ccc3o2)cc1`, the IC50 in test [1] is more than 10000 nM; on Histone deacetylase 1 it was 7.4 nM; at Histone deacetylase 3, 0.28 nM; on Histone deacetylase 2, 26.1 nM; in the test on MV4-11 it was 52.1 nM.

On to `CCCNNC(=O)c1ccc(CNC(=O)c2cc3ccccc3cn2)cc1`, for which the IC50 was more than 10000 nM in test [1]; 8.8 nM on Histone deacetylase 1; 1.48 nM on Histone deacetylase 3; 30.9 nM at Histone deacetylase 2; 45.9 nM in the test on MV4-11.

As for `CCCNNC(=O)c1ccc(CNC(=O)c2nc3ccccc3s2)cc1`, the IC50 in test [1] was more than 10000 nM; on Histone deacetylase 1 it was 9.73 nM; on Histone deacetylase 3, 1.31 nM; at Histone deacetylase 2 it was 42 nM; in the test with MV4-11, 43.6 nM.

`CCCNNC(=O)c1ccc(CNC(=O)c2cc3cc(F)ccc3[nH]2)cc1`: the IC50 was more than 10000 nM in test [1]; 12.9 nM at Histone deacetylase 1; 1.61 nM on Histone deacetylase 3; 52.7 nM on Histone deacetylase 2; 91.2 nM in the test with MV4-11.

Turning to `CCCNNC(=O)c1ccc(CNC(=O)c2cc3ccccc3o2)cc1`, the IC50 in test [1] is more than 10000 nM; on Histone deacetylase 1, 3.52 nM; on Histone deacetylase 3, 0.38 nM; at Histone deacetylase 2, 15.1 nM.

With `CCCNNC(=O)c1ccc(CNC(=O)c2nc3ccccc3[nH]2)cc1`, the IC50 in test [1] is more than 10000 nM; on Histone deacetylase 1 it was 11.3 nM; on Histone deacetylase 3, 1.44 nM; on Histone deacetylase 2 it was 33.4 nM; with MV4-11, 53.1 nM.

In the case of `CCCNNC(=O)c1ccc(CNC(=O)c2cc3cc(F)ccc3o2)cc1`, the IC50 in test [1] was more than 10000 nM; at Histone deacetylase 1, 8.22 nM; on Histone deacetylase 3, 0.83 nM; at Histone deacetylase 2 it was 27.9 nM; in the test with MV4-11 it was 56.5 nM.

Consider `CCCNNC(=O)c1ccc(CNC(=O)c2ccc3cnccc3c2)cc1`, for which the IC50 in test [1] was more than 10000 nM; at Histone deacetylase 1, 17.1 nM; at Histone deacetylase 3, 1.03 nM; on Histone deacetylase 2 it was 39.6 nM; with MV4-11, 64.1 nM.

Regarding `CCCNNC(=O)c1ccc(CNC(=O)c2ccc3ccncc3c2)cc1`, the IC50 was more than 10000 nM in test [1]; 20.8 nM on Histone deacetylase 1; 1.55 nM at Histone deacetylase 3; 30.1 nM on Histone deacetylase 2; 74 nM in the test on MV4-11.
